{
  "source": "patent US8168236B2",
  "about": "“Extracts of Polygonum multiflorum thunb., and preparation process and uses of the same” (National Yang-Ming University, priority 2003, dated 2012)",
  "key": {"[1]": {"system": "dexamethasone-stimulated mouse primary bone marrow cell cultures", "experiment": "Alkaline phosphatase colorimetry, dexamethasone-stimulated osteogenic cell maturation (test A)", "format": "cell-based", "conditions": "positive control, 0.1 nM estrogen", "procedure": "Under sterile condition, C57BL/6j (male, 15-20 g, 4-6 weeks old) were sacrificed, and their femoral bones were injected with alpha-minimal essential medium (α-MEM) culture medium (Gibco, N.Y., USA) so as to flush out the bone marrow cells. The collected cells in α-MEM culture medium were then filtered through a sterile No. 53 nylon mesh so as to obtain a single cell suspension.\nThe mouse bone marrow cells (1.5×10^5 nucleated cells/well) as prepared in the above Procedure (I) were placed into 96-well culture plates and incubated in α-MEM supplemented with 15% FCS, 10 μM dexamethazone, 50 μg/ml ascorbic acid, and 10 mM sodium, β-glycerophosphate. After incubation at 37° C. for 48 hrs, extracts of Polygonum multiflorum Thunb. root with different concentrations (0.01 μg/ml, 0.1 μg/ml, 1 μg/ml, 10 μg/ml, 100 μg/ml and 1000 μg/ml) were added into the wells of the culture plates, respectively. […]\nThe alkaline phosphatase (AP) colorimetry (Aubin, J. E. et al. (1995), Bone, 17: 77S-83S; Sabokbar, A. et al. (1994), Bone & Mineral, 27: 57-67) was conducted as follows: The culture medium in each well of the culture plates was removed, and the remaining cells were added with 120 μl of 0.01% SDS and incubated in a 37° C. incubator for 10 minutes. […] After a reaction time of 10-15 minutes at 37° C., the culture plates were subjected to absorbance detection at O.D. 405 nm."}, "[2]": {"system": "EGF-stimulated bone marrow cells", "experiment": "MTT assay, proliferation of EGF-stimulated bone marrow cells", "format": "cell-based, mouse", "conditions": "positive control, 50 ng/ml EGF", "procedure": "Under sterile condition, C57BL/6j (male, 15-20 g, 4-6 weeks old) were sacrificed, and their femoral bones were injected with DMEM/F12 culture medium (Gibco, N.Y. USA) so as to flush out the bone marrow cells. The collected cells in DMEM/F12 culture medium were then filtered through a sterile No. 53 nylon mesh so as to obtain a single cell suspension, the cell concentration of which was subsequently adjusted to 6×10^5 cells/ml with DMEM/F12 culture medium containing N2 supplement (Sigma, Mo., USA).\nThe mouse bone marrow cells (1.5×10^5 nucleated cells/well) as prepared in the above Procedure (I) were placed into 96-well culture plates and incubated in 200 μl of a defined medium (DMEM/F12 plus N2 supplement) supplemented with EGF (at a final concentration of 10 ng/ml). After incubation at 37° C. for 24 hrs, different concentrations (0.01 μg/ml, […], 1 μg/ml, 10 μg/ml and 100 μg/ml) of the extracts of Polygonum multiflorum Thunb. root obtained in Example 1 were added into the wells of the culture plates, respectively. […]\nSubsequently, MTT assay was performed. […] The culture plates were allowed to stand for 14 hours and then subjected to absorbance detection using a microplate reader at O.D. 550 nm-O.D. 690 nm. […] The obtained experimental data were analyzed by Student's t-test."}, "[3]": {"system": "mGM-CSF-stimulated mouse primary bone marrow cultures", "experiment": "MTT assay, mGM-CSF-stimulated proliferation of bone marrow cultures", "format": "cell-based", "conditions": "positive control, mGM-CSF 20 ng/ml", "procedure": "Subsequently, MTT assay was performed. Each well of the culture plates was added with a MTT solution (5 mg/ml dissolved in 1×PBS) to a final concentration of 1 mg/ml. Four hours later, each well of the culture plates was added with a MTT lysis buffer (20% sodium dodecyl sulfate (SDS) in 50% dimethylformamide (DMF)/50% H2O) in an amount of 150 μl/well. The culture plates were allowed to stand for 14 hours and then subjected to absorbance detection using a microplate reader at O.D. 550 nm-O.D. 690 nm. Each experiment was conducted in duplicate, and n=6 wells for each group. The obtained experimental data were analyzed by Student's t-test.\nThe mouse bone marrow cells (1.5×10^5 nucleated cells/well) prepared according to the procedures set forth in Procedure (I) of Example 5 were placed into 96-well culture plates and incubated in RPMI supplemented with 5% FCS and mGM-CSF (at a final concentration of 2 ng/ml). After incubation at 37° C. for 24 hrs, extracts of the Polygonum multiflorum Thunb. root with different concentrations (0.1 μg/ml, 1 μg/ml, 10 μg/ml and 100 μg/ml) were added into the wells of the culture plates, respectively. The positive control group was treated with 20 ng/ml mGM-CSF, and the negative control group was treated with 2 ng/ml mGM-CSF. […]"}},
  "data": [
    {"molecule": "estrogen", "values": [
      {"measurement": "AP activity index", "setting": "[1]", "result": 1.28}
    ]},
    {"molecule": "EGF: epidermal growth factor, 50 ng/ml positive control", "values": [
      {"measurement": "Proliferation index", "setting": "[2]", "result": "1.26 (±0.13)"}
    ]},
    {"molecule": "mGM-CSF: granulocyte-monocyte colony stimulating factor, 20 ng/ml positive control (protein, UniProt P01587 18-141, looked up) Granulocyte-macrophage …: APTRSPITVTRPWKHVEAIKEALNLLDDMPVTLNEEVEVVSNEFSFKKLTCVQTRLKIFEQGLRGNFTKLKGALNMTASYYQTYCPPTPETDCETQVTTYADFIDSLKTFLTDIPFECKKPGQK", "values": [
      {"measurement": "Proliferation index", "setting": "[3]", "result": 2.05}
    ]}
  ]
}
